Data on three compounds can be found in patent publication US4062958A, “Method of treating anxiety and compositions therefor” (American Cyanamid Company, priority 1976, dated 1977).

Assay [1] concerns clonic seizures caused by pentylenetetrazole. Put plainly: Protection against clonic seizures caused by pentylenetetrazole in rats. The class given is in vivo. As to conditions: Rattus norvegicus, oral, 2% starch vehicle, groups of at least 5, pentylenetetrazole 21 to 23 mg./kg. i.v. at estimated time of peak effect, read-out: Medium Effective Oral Dose ED50, protection against clonic seizures caused by pentylenetetrazole. As for the experimental part:
The anti-anxiety properties of the active compound of the present invention has been established in a test which indicates anxiolytic activity by the measure of protection from convulsions resulting from the administration of pentylenetetrazole. Graded dose levels of the compound of this invention were administered orally, in a 2% starch vehicle, to groups of at least 5 rats. At the estimated time of peak effect, the rats were treated intravenously with pentylenetetrazole at a dose of 21 to 23 mg./kg. of body weight. This dose is estimated to cause clonic seizures in 99% of unprotected rats. The effective dose (ED50) of the test compound for protection of 50% of the animals is calculated by the method of D. H. Finney in "Statistical Methods in Biological Assay", Second Edition, Hafner Publishing Co., New York, 1964, pp. 456-457. Representative results are given in the table which follows in comparison with chlordiazepoxide and meprobamate, which were tested in exactly the same manner. It has been reported [R. T. Hill and D. H. Tedeschi, "Animal Testing and Screening Procedures in Evaluating Psychotropic Drugs" in An Introduction of Psychopharmacology, Eds. R. R. Rech and K. E. Moore, Raven Press, New York, pp. 237-288 (1971)] that there is a high degree of correlation between antagonism of pentylenetetrazole seizures in rats and anti-anxiety effects in higher warm-blooded animals.

The test system of assay [2] is conflict situation induced in rats (number of shocks received). The assay is described as follows: Non-conditioned passive avoidance (conflict) procedure in rats. As to conditions: Sprague-Dawley rats, positive = 9 or more shocks in 4 to 5 minutes; for ED50: Rattus norvegicus, oral, comparison drugs tested in exactly the same manner, read-out: median effective dose (ED50). The class given is in vivo. The procedure:
Another test which has been used to assess anti-anxiety effects is a non-conditioned passive avoidance procedure described by J. R. Vogel, B. Beer and D. E. Clody, "A Simple and Reliable Conflict Procedure for Testing Anti-Anxiety Agents", Psychopharmacologia, Vol. 21, pp. 1-7 (1971). A conflict situation is induced in rats by a modification of this method. To groups of six naive Sprague-Dawley rats (200-220 grams), previously deprived of water for forty-eight hours and food for 24 hours, are administered graded oral doses of test compound suspended in 2% starch vehicle also containing 2 drops of polyethylene glycol and polysorbate 80, or vehicle alone (controls). At the time of peak effect each rat is placed in a plexiglass box fitted with a drinkometer circuit connected between the stainless steel grid floor and a stainless steel drinking tube inserted in a hole in one of the walls of the box. A stimulator supplying monophasic 60 cycle square wave pulses of 0.2 milliamperes peak intensity, a timer which allows alternate 5 second " shock free" and 5 second "shock available" periods during a 5 minute test period, an electromagnetic counter to count the number of shocks received by the rat during the shock available period and a delay of one half second between the successive shocks are incorporated into the drinkometer circuit. After the rat is placed in the box, it is allowed to explore and drink 10% dextrose solution supplied through the tap. After twenty seconds of continuous unpunished drinking, the timer and drinkometer circuits are activated and 5 second shock free and 5 second shock available periods alternate. The number of shocks received by the rat during a 5 minute test period is recorded. The percentage of rats that receive 9 or more shocks in 4 to 5 minutes at each dose level is used as positive response in calculation of the median effective dose (ED50). The estimated (ED50) for the compound 3-methyl-6-phenyl-1,2,4-triazolo[4,3-b]pyridazine after one hour from oral administration is 100 mg./kg.

Structures are written as SMILES.

As to `Cc1nnc2ccc(-c3ccccc3)nn12` [3-methyl-6-phenyl-1,2,4-triazolo[4,3-b]pyridazine], the ED50 in assay [1] is 3 mg/kg. In assay [2] (one hour after oral administration), the “estimated median effective dose (ED50)” value is 100 mg/kg.
Take `CNC1=Nc2ccc(Cl)cc2C(c2ccccc2)=[N+]([O-])C1` [Chlordiazepoxide]: the ED50 in assay [1] is 2.5 mg/kg; in assay [2] it was 9.6 mg/kg.
`CCCC(C)(COC(N)=O)COC(N)=O` [Meprobamate]: the ED50 in assay [1] was 22 mg/kg; in assay [2], 51.9 mg/kg.
